Where two headings read alike, the source gives them in different places.

The target of test [1] is T1, Mushroom tyrosinase (Agaricus bisporus, UniProt C7FF04). Put plainly: Tyrosinase assay (spectrophotometry, L-tyrosine substrate). It counts as biochemical. As to the method: Tyrosinase activity was determined by spectrophotometry, with minor modifications. First, 80 μL of 0.1 M potassium phosphate buffer (pH 6.6), 20 μL of sample dissolved in dimethyl sulfoxide at the concentrations needed (final concentrations 100–500 μg/mL), and 50 μL of L-tyrosine buffer (1.5 mM) solutions were mixed. Then, 50 μL of mushroom tyrosinase solution (200 unit/mL in phosphate buffer) was added to each mixture, which was then incubated at 25 °C for 15 min.
T1 sequence (C7FF04 2-392): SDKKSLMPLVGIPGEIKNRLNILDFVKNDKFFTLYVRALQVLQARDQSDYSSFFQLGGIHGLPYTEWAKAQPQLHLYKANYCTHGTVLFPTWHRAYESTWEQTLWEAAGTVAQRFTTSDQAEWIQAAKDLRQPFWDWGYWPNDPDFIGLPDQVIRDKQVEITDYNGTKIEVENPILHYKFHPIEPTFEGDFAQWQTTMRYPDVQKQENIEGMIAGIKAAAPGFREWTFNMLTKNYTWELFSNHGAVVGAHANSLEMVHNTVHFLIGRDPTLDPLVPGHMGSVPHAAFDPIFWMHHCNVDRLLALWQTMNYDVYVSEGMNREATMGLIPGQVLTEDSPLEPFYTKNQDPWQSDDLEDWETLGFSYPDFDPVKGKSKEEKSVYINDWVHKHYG
T1 sequence (G1K3P4 1-150 partner): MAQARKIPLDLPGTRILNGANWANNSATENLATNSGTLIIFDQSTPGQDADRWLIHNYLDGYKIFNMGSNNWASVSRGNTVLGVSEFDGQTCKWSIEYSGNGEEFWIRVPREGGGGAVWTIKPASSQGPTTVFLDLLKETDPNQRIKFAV
The results were expressed as mean ± standard deviation (SD), and were repeated three to five times. The inhibitory concentration (IC50) was calculated by log-Probit analysis.

Test [2] concerns the target T1, Mushroom tyrosinase. The test is described as above. It counts as biochemical. This is another data set of the same source.
The test system of another test is cyclooxygenase-1 (COX-1). The arrangement: method as in PMID 14646327. The note with it: in vitro; cited from earlier work.

On Mushroom tyrosinase [1], `OC[C@H]1O[C@@H](Oc2ccc(O)cc2)[C@H](O)[C@@H](O)[C@@H]1O` [Arbutin, arbutin, reference compound] returned an inhibition at 100 µg/mL of 86 ± 1.6% and an inhibition at 500 µg/mL of 98.2 ± 0.9%. Moreover, the inhibition at 500 µg/mL on Mushroom tyrosinase [1] (read-out: Inhibition % (500 μg/mL)) is 92.3 ± 2.2%. At Mushroom tyrosinase [2], this molecule gave an inhibition at 10 µg/mL of 13.7 ± 1.8% and an inhibition at 50 µg/mL of 63.8 ± 0.1%.

As for `O=C(O)/C=C/c1ccc(O)c(O)c1` [Caffeic acid (5), caffeic acid], at Mushroom tyrosinase [1] (100 μg/mL, Table 4, read-out: Inhibition (%)), the inhibition at 100 µg/mL is under 1%. Molecule `O=C(/C=C/c1ccc(O)c(O)c1)O[C@@H]1C[C@](O)(C(=O)O)C[C@@H](O)[C@H]1O` [Chlorogenic acid (3), chlorogenic acid] registered an inhibition at 100 µg/mL against Mushroom tyrosinase [1] of under 1%. The molecule `O=C(O)[C@H]1O[C@@H](Oc2c(-c3ccc(O)cc3)oc3cc(O)cc(O)c3c2=O)[C@H](O)[C@@H](O)[C@@H]1O` [Kaempferol 3-O-glucuronide (6), kaempferol 3-O-glucuronide] yielded an inhibition at 100 µg/mL on Mushroom tyrosinase [1] of under 1%. In turn, `O=c1c(O)c(-c2ccc(O)cc2)oc2cc(O)cc(O)c12` [Kaempferol (8), kaempferol] yielded an inhibition at 100 µg/mL against Mushroom tyrosinase [1] of 30 ± 1.97%. On Mushroom tyrosinase [1], `O=C(O)c1ccc(O)c(O)c1` [Protocatechuic acid (1), protocatechuic acid] had an inhibition at 100 µg/mL of under 1%. As for `O=c1c(O)c(-c2ccc(O)c(O)c2)oc2cc(O)cc(O)c12` [Quercetin (7), quercetin], the “Inhibition (%)” value at Mushroom tyrosinase [1] (100 μg/mL, Table 4) is reported as 99.7 ± 0.28%; on Mushroom tyrosinase [1] (100 μg/mL, Table 4, listed as quercetin), “over 95%”. In addition, the “inhibition of cyclooxygenase-1 (COX-1)” value in the test with cyclooxygenase-1 (COX-1) is 52% ± 2. Take `COc1cc(C(=O)O)ccc1O` [Vanilic acid (4), vanillic acid]: the inhibition at 100 µg/mL at Mushroom tyrosinase [1] was under 1%. Still for that read-out and setting: in the case of `O=C(O)c1ccc(O)cc1` [p-Hydroxybenzoic acid (2), p-hydroxybenzoic acid] it was 8.3 ± 4.03%.

(Values after article PMC6155296, “Screening of Peruvian Medicinal Plants for Tyrosinase Inhibitory Properties: Identification of Tyrosinase Inhibitors in Hypericum laricifolium Juss” (Molecules : A Journal of Synthetic Chemistry and Natural …, 2017).)
